Test [1] concerns cells expressing pluripotency markers derived from human embryonic stem cells. Nature of the test: MTS viability (toxicity) assay of cells expressing pluripotency markers. It counts as cell-based. More on the design: Raw data (duplicate), first replicate / Average: unit not given here. The following applies: for viability at 10 µM: Homo sapiens, Embryonic stem cell, viability of cells expressing pluripotency markers, relative to control; for Raw data (duplicate), first replicate / Raw data (duplicate), second replicate: MTS viability assay raw reading; for Raw data (duplicate), first replicate: replicate 1; for Raw data (duplicate), second replicate: replicate 2; for Average: average of duplicate MTS raw readings. On the procedure: Derivation and maintenance of cells expressing pluripotency makers was conducted as has been described in Example 2. Cells were grown in DMEM:F12 supplemented with 2% FCS (Invitrogen), 100 ng/ml Activin A, 20 ng/ml Wnt-3a, and 50 ng/ml IGF (R&D Biosystems). Cells were seeded at a density of 10,000 cells/cm^2 on Falcon polystyrene flasks and grown in monolayer culture at 37° C., 5% CO2, low oxygen. After reaching 60-70% confluence, cells were passed by washing the monolayer with PBS and incubating with TrypLE (Invitrogen) for 3-5 minutes to allow detachment and single cell dispersal.
Screening was conducted using test compounds from a proprietary library of small molecules selected for their ability to inhibit GSK-3B enzyme activity. Compounds from this library were made available as 1 mM stocks, in a 96-well plate format in 50 mM HEPES, 30% DMSO. For assay, cells expressing pluripotency markers were washed, counted, and plated in normal culture medium at a seeding density of 20,000 cells per well in 96-well clear-bottom, dark-well plates (Costar). This seeding density was previously determined to yield optimal monolayer formation in overnight culture. On the following day, culture medium was removed, cell monolayers were rinsed three times with PBS, and test compounds were added to the wells in 80 μl aliquots, each diluted into assay medium at a final assay concentration of 10 μM. On day 2 of the assay, medium was removed from each well and replaced with a fresh aliquot of test compounds diluted into assay medium. Assay medium on days 1 and 2 of culture consisted of DMEM:F12 supplemented with 0.5% FCS and 100 ng/ml Activin A. On days 3 and 4 of culture, medium was removed from each well and replaced with DMEM:F12 supplemented with 2% FCS and 100 ng/ml Activin A (no test compound). On day 4 of assay, 15 μl of MTS (Promega) was added to each well and plates were incubated at 37° C. for 1.5 to 4 hours prior to reading optical density at 490 nm on a SpectraMax (Molecular Devices) instrument. Statistical measures consisting of mean, standard deviation, and coefficient of variation were calculated for each duplicate set. Toxicity was calculated for each test well relative to a positive control (wells treated with Activin A and Wnt3a on days 1 and 2 of culture).
A larger proportion of the compounds have minimal or no measurable toxicity in this cell-based assay.
A small panel of select compounds was repeat tested over a narrow dose titration range, again using cells expressing pluripotency markers in a similar assay as described above.
(In general: Tetrazolium assays rely on reduction of a dye to a coloured formazan, in cell work by metabolically active cells.)

In test [2] the test system is human embryonic stem cells (H9 or H1 lines). As to the kind of experiment: Plate reader (MTS) proliferation assay. Type of test: cell-based. The following applies: for activity at 10 µM: Homo sapiens, Embryonic stem cell, 96 h, 10 μM test compound with 100 ng/ml activin A on days 1-2, MTS OD490 on day 4, vs Activin A/Wnt3a positive control, strong and moderate hits; for Average: average of replicate raw data. On the procedure:
Maintenance of human embryonic stem cells (H9 or H1 lines) was conducted as described in Example 1. Colonies of cells were maintained in an undifferentiated, pluripotent state with passage on average every four days. Passage was performed by exposing cell cultures to a solution of collagenase (1 mg/ml; Sigma-Aldrich) for 10 to 30 minutes at 37° C. followed by gentle scraping with a pipette tip to recover cell clusters. Clusters were allowed to sediment and washed to remove residual collagenase. Cell clusters were split at a ratio of 1:3 monolayer area for routine culture or a 1:1 ratio for immediate assay. The human embryonis stem cell lines used for these examples were maintained at passage numbers less than 50 and routinely evaluated for normal karyotypic phenotype as well as absence of mycoplasm contamination.
Cell clusters used in assay were evenly resuspended in normal culture medium and plated into MATRIGEL-coated 96-well Packard VIEWPLATES (PerkinElmer) in volumes of 100 μl/well. MEF conditioned medium supplemented with 8 ng/ml bFGF) was used for initial plating and recovery. Daily feeding was conducted by aspirating spent culture medium from each well and replacing with an equal volume of fresh medium. Plates were maintained at 37° C. in a humidified box, 5% CO2 throughout the duration of assay.
Primary screening assays were initiated by aspirating culture medium from each well followed by three washes in PBS to remove residual growth factors and serum. Test volumes of 80-100 μl per well were added back containing DMEM:F12 base medium (Invitrogen) supplemented with 0.5% FCS (HyClone) and 100 ng/ml activin A (R&D Biosystems) and 10 μM test compound. Positive control wells contained the same medium substituting 10-20 ng/ml Wnt3a (R&D Biosystems). Negative control wells contained base medium with 0.5% FCS without activin A or Wnt3a. Screening compounds were tested in triplicate. Wells were aspirated and fed again with identical solutions on day 2 of the assay. On days 3 and 4, all assay wells were aspirated and converted to DMEM:F 12 supplemented with 2% FCS and 100 ng/ml activin A with the exception of negative control wells which were maintained in DMEM:F12 base medium with 2% FCS.
On day 4 of assay, 15-20 μl of MTS (Promega) was added to each well and plates were incubated at 37° C. for 1.5 to 4 hours. Densitometric readings at OD490 were determined using a Molecular Devices spectrophotometer plate reader. Average readings for replicate sets were calculated along with standard deviation and coefficient of variation. Experimental wells were compared to the Activin A/Wnt3a positive control to calculate a percent control value as a measure of proliferation.
Strong hits are defined as greater than or equal to 120% of control values; moderate hits are defined as falling within the interval of 60-120% of control values. A significant number of compounds induce a proliferative response in this assay.

Three compounds from US20130337564A1, “Treatment of Pluripotent Cells” (Janssen Biotech, Inc., priority 2012, published 2013) can be followed below.

What is called viability is a read-out of living cells in per cent, often relative to untreated cells. Take `COCCCn1cc(C2=C(c3ccccc3OC)C(=O)NC2=O)c2cnccc21` [Compound 55, 3-[2-(Methyloxy)phenyl]-4-{1-[3-(methyloxy)propyl]-1H-pyrrolo[3,2-c]pyridin-3-yl}-1H-pyrrole-2,5-dione]: in test [1], the viability at 10 µM was 115%; the “Raw data (duplicate), first replicate” value is reported as 0.952; the “Raw data (duplicate), second replicate” value was found to be 0.919; the Average is listed as 0.935. In test [2], the activity at 10 µM amounted to 152% and the Average was determined as 1.1695.
On to `COc1ncc(C2=C(c3cn(CCc4ccccc4)c4ncccc34)C(=O)NC2=O)c(OC)n1` [Compound 98, 3-[2,4-Bis(methyloxy)pyrimidin-5-yl]-4-[1-(2-phenylethyl)-1H-pyrrolo[2,3-b]pyridin-3-yl]-1H-pyrrole-2,5-dione], for which, in test [1], the viability at 10 µM was determined as 88.1%; the “Raw data (duplicate), first replicate” value is 0.758; the “Raw data (duplicate), second replicate” value is recorded as 0.575; the Average amounted to 0.667. In test [2], the activity at 10 µM was 88% and the Average came to 0.6374.
For the compound `COc1ncc(C2=C(c3cn(CCCC#N)c4ncccc34)C(=O)NC2=O)c(OC)n1` [Compound 74, 4-(3-{4-[2,4-Bis(methyloxy)pyrimidin-5-yl]-2,5-dioxo-2,5-dihydro-1H-pyrrol-3-yl}-1H-pyrrolo[2,3-b]pyridin-1-yl)butanenitrile], the viability at 10 µM in test [1] was determined as 78.8%. Also, in test [2], the activity at 10 µM was determined as 130%.
